Like-named read-outs stand apart in the source and are kept apart here.
Columns and labels:
[1] = test system: PqsR (PqsR-controlled pqsA promoter, PAO1-L mCTX::PpqsA-lux); test: Bioluminescent reporter assay, PAO1-L mCTX::PpqsA-lux; type: cell-based, Pseudomonas aeruginosa; conditions: for IC50: Pseudomonas aeruginosa; for pqs inhibitory activity in the PA bioluminescent reporter assay, in words: reporter strains; for reduction in potency compared with 6f: PAO1-L; for activity relative to 6f / to each other, in words: PAO1-L reporter (6i, 6j, 6s: both reporter strains)
Procedure: (§1) An extensive SAR was performed on 6a to investigate the role of substitutions around various positions of the benzimidazole ring (groups R1–R3) as well as the aromatic tail (groups R4–R5) to fine-tune the potency of this series (6a–u) (Table 2). The activity of these analogues to inhibit the pqs QS system was evaluated in the PAO1-L and PA14 strains (that belong to the two major P. aeruginosa genomic lineages), both harboring a chromosomally integrated mCTX::PpqsA-lux transcriptional fusion to report for the activity of pqs system. Successful pharmacological blocking of AQ signal reception at the level of PqsR leads to a reduced transcription of the pqsA-lux genes and ultimately reduction in the luminescence readout.
(§2) Strains PA14 mCTX::PpqsA-lux and PAO1-L mCTX::PpqsA-lux were used to detect PqsR-controlled activation of the pqsA promoter, as previously described,[45] and the assay was performed according to a published method.[46] For initial screening, the compounds were tested at a concentration of 10 μM, which was prepared from a 10 mM stock, in DMSO.

[2] = test system: PqsR (PqsR-controlled pqsA promoter, PA14 mCTX::PpqsA-lux); test: Bioluminescent reporter assay, PA14 mCTX::PpqsA-lux; type: cell-based; conditions: Pseudomonas aeruginosa
Procedure: as §1, §2

[3] = test system: PqsR (PqsR-controlled pqsA promoter, PAO1-L mCTX::PpqsA-lux); parameters: method as in PMID 34503335; conditions: previously reported inhibitor; read-out: IC50 in P. aeruginosa PAO1-L; cited from earlier work
[4] = test system: pyocyanin production in P. aeruginosa; test: Pyocyanin quantification; type: cell-based, Pseudomonas aeruginosa; conditions: PAO1-L; concentration three times the IC50; relative to DMSO
Procedure: This assay was extended further to investigate the effect of 6f on pyocyanin production in different P. aeruginosa at 6f concentration of 200 nM (Figure 5b).
The experiment was performed following a published protocol with minor modifications. Strains were cultured into 5 mL of fresh medium overnight. […] Cells were centrifuged at 10 000 RCF for 10 min (Allegra 64R centrifuge, Beckman Coulter, High Wycombe, UK), and the supernatant was transferred to 15 mL falcon tubes with a HSW 10 mL Soft-Ject Syringe and a […] Sartorius syringe-driven filter (Fisher Brand, Loughborough, UK). Pyocyanin pigment was extracted into chloroform by mixing 7.5 mL of supernatant with 4.5 mL of chloroform. Pyocyanin was further extracted into 1.5 mL of 0.2 M HCL, which gave a pink/red solution, and the absorbance was measured at 520 nm.[47]

[5] = test system: A549 human lung epithelial carcinoma cell line; test: A549 cytotoxicity assay (resazurin / alamar blue); type: cell-based; conditions: at concentrations up to 100 μM (1, 50, 100 μM), 24 h
Procedure: Establishing the safety profile of new chemical entities is paramount for further drug development. […] The assay employed resazurin reduction, a sensitive fluorometric assay widely used as a standard methodology in drug discovery research.[35] This assay relies on the ability of living cells to reduce resazurin to the fluorescent compound, resorufin, which indicates the rate of the metabolic activity as a means to quantify cell viability.
Cell viability was assessed according to Nimesh et al.[51] on A549 adenocarcinomic human alveolar basal epithelial cell line. The viability of the A549 cell line was assessed after overnight incubation with three concentrations (1, 50, and 100 μM) of the corresponding compound using alamar blue (resazurin) dye. Cells were maintained in the Dulbecco’s Modified Essential Medium (DMEM) supplemented with 10% fetal bovine serum (FBS) and 1% penicillin–streptomycin–neomycin (PSN). After that, 100 μL of suspended cells with a final concentration (1 × 10^4 cells/wall) were seeded in 96-well plates with 100 μL of (1, 50, 100 μM) concentrations of the tested compound was dispensed in sextuplicate. […] The plates were further incubated for 4–6 h and the intensity of the fluorescence was measured using an excitation light of 510 nm and measuring the fluorescence output at 590 nm. The cell viability in each well was normalized to the DMSO reading.

[6] = PAO1, read-out: IC50 (μM) PAO1-L mCTX::PpqsA-lux
[7] = PA14, read-out: IC50 (μM) PA14 mCTX::PpqsA-lux

Compound	IC50 [1, 6]	IC50 [2, 7]	other results
Cn1c(NCC(O)COc2ccc(CC#N)cc2)nc2ccc(Cl)cc21 (stereo not shown) [Compound 6a, 2-(4-(3-((6-Chloro-1-methyl-1H-benzo[d]imidazol-2-yl)amino)-2-hydroxypropoxy)phenyl) Acetonitrile]	–	–	enhancement of activity compared to 1 ([1]; PAO1-L laboratory strain): 15 fold; IC50 ([1]; PAO1, read-out: IC50 (μM) PAO1-L PpqsA-lux): 0.21 ± 0.04 µM; IC50 ([2]; PA14, read-out: IC50 (μM) PA14 PpqsA-lux): 0.2 ± 0.02 µM
N#CCc1ccc(OCC(O)Cn2cnc3ccc(Cl)cc3c2=O)cc1 (stereo not shown) [Compound 1]	–	–	IC50 [3]: 3.2 µM
CN1CCC(n2c(NCC(O)COc3ccc(CC#N)cc3)nc3ccc(Cl)cc32)CC1 (stereo not shown) [Compound 6r, 2-(4-(3-((6-Chloro-1-(1-methylpiperidin-4-yl)-1H-benzo[d]imidazol-2-yl)amino)-2-hydroxypropoxy)phenyl) Acetonitrile]	–	–	pqs inhibitory activity in the PA bioluminescent reporter assay, in words [1]: not active
CN(C)CCn1c(NCC(O)COc2ccc(CC#N)cc2)nc2ccc(Cl)cc21 (stereo not shown) [Compound 6q, 2-(4-(3-((6-Chloro-1-(2-(dimethylamino)ethyl)-1H-benzo[d]imidazol-2-yl)amino)-2-hydroxypropoxy)phenyl) Acetonitrile]	–	–	pqs inhibitory activity in the PA bioluminescent reporter assay, in words [1]: obliterated the biological activity
CC(C)n1c(NCC(O)COc2ccc(CC#N)c(F)c2)nc2ccc(Cl)cc21 (stereo not shown) [Compound 6o, 2-(4-(3-((6-Chloro-1-isopropyl-1H-benzo[d]imidazol-2-yl)amino)-2-hydroxypropoxy)-2-fluorophenyl) Acetonitrile]	0.06 ± 0.03 µM	0.09 ± 0.01 µM	–
CC(C)(C)Cn1c(NCC(O)COc2ccc(CC#N)cc2)nc2ccc(Cl)cc21 (stereo not shown) [Compound 6h, 2-(4-(3-((6-Chloro-1-neopentyl-1H-benzo[d]imidazol-2-yl)amino)-2-hydroxypropoxy)phenyl) Acetonitrile]	0.38 µM	0.25 µM	reduction in potency compared with 6f [1]: ~6 fold
2-(4-(3-((5,6-Dichloro-1-methyl-1H-benzo[d]imidazol-2-yl) amino)-2-hydroxypropoxy) phenyl) Acetonitrile [Compound 6c]	–	–	pqs inhibitory activity in the PA bioluminescent reporter assay, in words [1]: abolished the activity
N#CCc1ccc(OCC(O)CNc2nc3ccc(Cl)cc3n2C2CCCC2)cc1 (stereo not shown) [Compound 6k, 2-(4-(3-((6-Chloro-1-cyclopentyl-1H-benzo[d]imidazol-2-yl)amino)-2-hydroxypropoxy)phenyl) Acetonitrile]	0.44 ± 0.1 µM	0.47 ± 0.1 µM	reduction in potency compared with 6f [1]: ~6 fold
N#CCc1ccc(OCC(O)CNc2nc3ccc(Cl)cc3s2)cc1 (stereo not shown) [Compound 8]	–	–	pqs inhibitory activity in the PA bioluminescent reporter assay, in words [1]: abolished pqs inhibitory activity
N#CCc1ccc(OCC(O)CNc2nc3ccc(Cl)cc3o2)cc1 (stereo not shown) [Compound 7]	–	–	pqs inhibitory activity in the PA bioluminescent reporter assay, in words [1]: abolished pqs inhibitory activity
N#CCc1ccc(OCC(O)CNc2nc3ccc(Cl)cc3n2C2CCC2)cc1 (stereo not shown) [Compound 6j, 2-(4-(3-((6-Chloro-1-cyclobutyl-1H-benzo[d]imidazol-2-yl)amino)-2-hydroxypropoxy)phenyl) Acetonitrile]	0.16 ± 0.01 µM	0.31 ± 0.05 µM	activity relative to 6f / to each other, in words [1]: comparable potencies to 6f
N#CCc1ccc(OCC(O)CNc2nc3ccc(Cl)cc3n2C2COC2)cc1 (stereo not shown) [Compound 6s, 2-(4-(3-((6-Chloro-1-(oxetan-3-yl)-1H-benzo[d]imidazol-2-yl)amino)-2-hydroxypropoxy)phenyl) Acetonitrile]	0.24 ± 0.02 µM	0.21 ± 0.03 µM	activity relative to 6f / to each other, in words [1]: comparable potencies to 6f
CC(C)(C)n1c(NCC(O)COc2ccc(CC#N)cc2)nc2ccc(Cl)cc21 (stereo not shown) [Compound 6g, 2-(4-(3-((1-(tert-Butyl)-6-chloro-1H-benzo[d]imidazol-2-yl)amino)-2-hydroxypropoxy)phenyl) Acetonitrile]	0.22 ± 0.01 µM	0.23 ± 0.01 µM	inhibition of pyocyanin production [4]: ~80%
CC(C)n1c(NCC(O)COc2ccc(CC#N)cc2)nc2ccccc21 (stereo not shown) [Compound 6p, 2-(4-(2-Hydroxy-3-((1-isopropyl-1H-benzo[d]imidazol-2-yl)amino)propoxy)phenyl) Acetonitrile]	0.77 µM	1.03 µM	–
CC(C)n1c(NCC(O)COc2ccc(CC#N)cc2F)nc2ccc(Cl)cc21 (stereo not shown) [Compound 6n, 2-(4-(3-((6-Chloro-1-isopropyl-1H-benzo[d]imidazol-2-yl)amino)-2-hydroxypropoxy)-3-fluorophenyl) Acetonitrile]	0.05 ± 0.02 µM	0.11 ± 0.01 µM	cytotoxicity for A549 cells [5]: not cytotoxic
CC(C)n1c(NC[C@@H](O)COc2ccc(CC#N)cc2)nc2ccc(Cl)cc21 [Compound 6w]	–	–	activity relative to 6f / to each other, in words [1]: comparable activity to the racemic compound 6f
N#CCc1ccc(OCC(O)CNc2nc3ccc(Cl)cc3n2C2CC2)cc1 (stereo not shown) [Compound 6i, 2-(4-(3-((6-Chloro-1-cyclopropyl-1H-benzo[d]imidazol-2-yl)amino)-2-hydroxypropoxy)phenyl) Acetonitrile]	0.07 ± 0.03 µM	0.09 ± 0.02 µM	activity relative to 6f / to each other, in words [1]: comparable potencies to 6f
N#CCc1ccc(OCC(O)CNc2nc3ccc(Cl)cc3n2CCO)cc1 (stereo not shown) [Compound 6u, 2-(4-(3-((6-Chloro-1-(2-hydroxyethyl)-1H-benzo[d]imidazol-2-yl)amino)-2-hydroxypropoxy)phenyl) Acetonitrile]	0.18 ± 0.05 µM	0.1 ± 0.02 µM	reduction in potency compared with 6f [1]: 2 fold
N#CCc1ccc(OCC(O)CNc2nc3ccc(Cl)cc3n2C2CCCCC2)cc1 (stereo not shown) [Compound 6l, 2-(4-(3-((6-Chloro-1-cyclohexyl-1H-benzo[d]imidazol-2-yl)amino)-2-hydroxypropoxy)phenyl) Acetonitrile]	1.7 ± 0.5 µM	1.4 ± 0.1 µM	reduction in potency compared with 6f [1]: 25 fold
COCCn1c(NCC(O)COc2ccc(CC#N)cc2)nc2ccc(Cl)cc21 (stereo not shown) [Compound 6t, 2-(4-(3-((6-Chloro-1-(2-methoxyethyl)-1H-benzo[d]imidazol-2-yl)amino)-2-hydroxypropoxy)phenyl) Acetonitrile]	0.18 ± 0.04 µM	0.2 ± 0.05 µM	reduction in potency compared with 6f [1]: 2 fold
2-(4-(3-((5-Chloro-1-methyl-1H-benzo[d]imidazol-2-yl)amino)-2-hydroxypropoxy)phenyl) Acetonitrile [Compound 6b]	–	–	pqs inhibitory activity in the PA bioluminescent reporter assay, in words [1]: abolished the activity
CC(C)n1c(NC[C@H](O)COc2ccc(CC#N)cc2)nc2ccc(Cl)cc21 [Compound 6v]	–	–	activity relative to 6f / to each other, in words [1]: comparable activity to the racemic compound 6f
Cn1c(SCC(O)COc2ccc(CC#N)cc2)nc2ccc(Cl)cc21 (stereo not shown) [Compound 11]	–	–	pqs inhibitory activity in the PA bioluminescent reporter assay, in words [1]: abolished pqs inhibitory activity
N#CCc1ccc(OCC(O)CNc2nc3ccc(Cl)cc3n2CCOCc2ccccc2)cc1 (stereo not shown) [Compound 6m, 2-(4-(3-((1-(2-(Benzyloxy)ethyl)-6-chloro-1H-benzo[d]imidazol-2-yl)amino)-2-hydroxypropoxy)phenyl) Acetonitrile]	1.06 µM	–	reduction in potency compared with 6f [1]: 14 fold

From article PMC10823468, “Design, Synthesis, and Evaluation of New 1H-Benzo[d]imidazole Based PqsR Inhibitors as Adjuvant Therapy for Pseudomonas aeruginosa Infections” (Journal of Medicinal Chemistry, 2024)
